Test results as given in ChEMBL document CHEMBL5046315, “CRCM5484: A BET-BDII Selective Compound with Differential Anti-leukemic Drug Modulation” (J Med Chem, 2022).
Active and inactive are the calls of the source.

How the values were obtained:
[1] = system: MOLM-14; experiment: Potentiation of topotecan-induced antileukemic activity against human MOLM-14 cells at 4.3 uM in presence of bone-marrow derived stromal cell-conditioned medium; type: functional, cell-based
[2] = system: U-937; experiment: Potentiation of lapatinib-induced antileukemic activity against human U-937 cells at 4.3 uM in presence of bone-marrow derived stromal cell-conditioned medium; type: functional, cell-based
[3] = system: CCRF-CEM; experiment: Potentiation of lapatinib-induced antileukemic activity against human CCRF-CEM cells at 4.3 uM in presence of bone-marrow derived stromal cell-conditioned medium; type: functional, cell-based
[4] = system: CCRF-CEM; experiment: Potentiation of tretinoin-induced antileukemic activity against human CCRF-CEM cells at 4.3 uM in presence of bone-marrow derived stromal cell-conditioned medium; type: functional, cell-based
[5] = system: U-937; experiment: Potentiation of daunorubicine-induced antileukemic activity against human U-937 cells at 4.3 uM in presence of bone-marrow derived stromal cell-conditioned medium; type: functional, cell-based
[6] = system: MOLM-14; experiment: Potentiation of ponatinib-induced antileukemic activity against human MOLM-14 cells at 4.3 uM in presence of bone-marrow derived stromal cell-conditioned medium; type: functional, cell-based
[7] = system: U-937; experiment: Potentiation of VX680-induced antileukemic activity against human U-937 cells at 4.3 uM in presence of bone-marrow derived stromal cell-conditioned medium; type: functional, cell-based
[8] = system: U-937; experiment: Potentiation of cladribine-induced antileukemic activity against human U-937 cells at 4.3 uM in presence of bone-marrow derived stromal cell-conditioned medium; type: functional, cell-based
[9] = system: MOLM-14; experiment: Potentiation of vincristine-induced antileukemic activity against human MOLM-14 cells at 4.3 uM in presence of bone-marrow derived stromal cell-conditioned medium; type: functional, cell-based
[10] = system: U-937; experiment: Potentiation of tretinoin-induced antileukemic activity against human U-937 cells at 4.3 uM in presence of bone-marrow derived stromal cell-conditioned medium; type: functional, cell-based
[11] = system: U-937; experiment: Potentiation of 17AAG-induced antileukemic activity against human U-937 cells at 4.3 uM in presence of bone-marrow derived stromal cell-conditioned medium; type: functional, cell-based
[12] = system: CCRF-CEM; experiment: Potentiation of MK2206-induced antileukemic activity against human CCRF-CEM cells at 4.3 uM in presence of bone-marrow derived stromal cell-conditioned medium; type: functional, cell-based
[13] = system: MOLM-14; experiment: Potentiation of navitoclax-induced antileukemic activity against human MOLM-14 cells at 4.3 uM in presence of bone-marrow derived stromal cell-conditioned medium; type: functional, cell-based
[14] = system: U-937; experiment: Potentiation of everolimus-induced antileukemic activity against human U-937 cells at 4.3 uM in presence of bone-marrow derived stromal cell-conditioned medium; type: functional, cell-based
[15] = system: U-937; experiment: Potentiation of palbociclib-induced antileukemic activity against human U-937 cells at 4.3 uM in presence of bone-marrow derived stromal cell-conditioned medium; type: functional, cell-based
[16] = system: U-937; experiment: Potentiation of AT9283-induced antileukemic activity against human U-937 cells at 4.3 uM in presence of bone-marrow derived stromal cell-conditioned medium; type: functional, cell-based
[17] = system: MOLM-14; experiment: Potentiation of quizartinib-induced antileukemic activity against human MOLM-14 cells at 4.3 uM in presence of bone-marrow derived stromal cell-conditioned medium; type: functional, cell-based
[18] = system: CCRF-CEM; experiment: Potentiation of AG-221-induced antileukemic activity against human CCRF-CEM cells at 4.3 uM in presence of bone-marrow derived stromal cell-conditioned medium; type: functional, cell-based
[19] = system: MOLM-14; experiment: Potentiation of sunitinib-induced antileukemic activity against human MOLM-14 cells at 4.3 uM in presence of bone-marrow derived stromal cell-conditioned medium; type: functional, cell-based
[20] = system: CCRF-CEM; experiment: Potentiation of hydroxychloroquine-induced antileukemic activity against human CCRF-CEM cells at 4.3 uM in presence of bone-marrow derived stromal cell-conditioned medium; type: functional, cell-based
[21] = system: MOLM-14; experiment: Potentiation of gefitinib-induced antileukemic activity against human MOLM-14 cells at 4.3 uM in presence of bone-marrow derived stromal cell-conditioned medium; type: functional, cell-based
[22] = system: MOLM-14; experiment: Potentiation of -mastinib -induced antileukemic activity against human MOLM-14 cells at 4.3 uM in presence of bone-marrow derived stromal cell-conditioned medium; type: functional, cell-based
[23] = system: U-937; experiment: Potentiation of -nutlin 3-induced antileukemic activity against human U-937 cells at 4.3 uM in presence of bone-marrow derived stromal cell-conditioned medium; type: functional, cell-based
[24] = system: NB-4; experiment: Cytotoxicity against human NB-4 cells assessed as reduction in cell viability incubated for 72 hrs; type: functional, cell-based; conditions: NB-4, 72 h
[25] = system: CCRF-CEM; experiment: Potentiation of palbociclib-induced antileukemic activity against human CCRF-CEM cells at 4.3 uM in presence of bone-marrow derived stromal cell-conditioned medium; type: functional, cell-based
[26] = system: CCRF-CEM; experiment: Potentiation of crenolatinib-induced antileukemic activity against human CCRF-CEM cells at 4.3 uM in presence of bone-marrow derived stromal cell-conditioned medium; type: functional, cell-based
[27] = system: U-937; experiment: Potentiation of gileritinib-induced antileukemic activity against human U-937 cells at 4.3 uM in presence of bone-marrow derived stromal cell-conditioned medium; type: functional, cell-based
[28] = system: U-937; experiment: Potentiation of rigosertib-induced antileukemic activity against human U-937 cells at 4.3 uM in presence of bone-marrow derived stromal cell-conditioned medium; type: functional, cell-based
[29] = system: CCRF-CEM; experiment: Potentiation of OTX015-induced antileukemic activity against human CCRF-CEM cells at 4.3 uM in presence of bone-marrow derived stromal cell-conditioned medium; type: functional, cell-based
[30] = system: MOLM-14; experiment: Potentiation of OTX015-induced antileukemic activity against human MOLM-14 cells at 4.3 uM in presence of bone-marrow derived stromal cell-conditioned medium; type: functional, cell-based
[31] = system: U-937; experiment: Potentiation of tipifarnib-induced antileukemic activity against human U-937 cells at 4.3 uM in presence of bone-marrow derived stromal cell-conditioned medium; type: functional, cell-based
[32] = system: U-937; experiment: Potentiation of luminespid-induced antileukemic activity against human U-937 cells at 4.3 uM in presence of bone-marrow derived stromal cell-conditioned medium; type: functional, cell-based
[33] = target: Bromodomain-containing protein 4 (Homo sapiens, UniProt O60885); experiment: Inhibition of human partial length BRD4-BD2 (K333 to E460 residues) expressed in bacterial system at 1 uM by BROMOscan method relative to control
[34] = system: CCRF-CEM; experiment: Potentiation of carfilzomib-induced antileukemic activity against human CCRF-CEM cells at 4.3 uM in presence of bone-marrow derived stromal cell-conditioned medium; type: functional, cell-based
[35] = system: Acute myeloid leukemic cell; experiment: Potentiation of vorinostat-induced antileukemic activity against patient derived mouse xenografted acute myeloid leukemic cells assessed as cell viability at 0.16 to 10 uM in presence of bone-marrow derived stromal cell-conditioned medium measured after 72 to 144 hrs by cell-titre glo luminescent assay; type: functional, cell-based; conditions: Homo sapiens, dose 0.16-10 µM, time lower […], time upper 144.0 hrs
[36] = system: U-937; experiment: Potentiation of bortezomib-induced antileukemic activity against human U-937 cells at 4.3 uM in presence of bone-marrow derived stromal cell-conditioned medium; type: functional, cell-based
[37] = system: CCRF-CEM; experiment: Potentiation of nelarabine-induced antileukemic activity against human CCRF-CEM cells at 4.3 uM in presence of bone-marrow derived stromal cell-conditioned medium; type: functional, cell-based
[38] = system: MOLM-14; experiment: Potentiation of hydroxychloroquine-induced antileukemic activity against human MOLM-14 cells at 4.3 uM in presence of bone-marrow derived stromal cell-conditioned medium; type: functional, cell-based
[39] = system: U-937; experiment: Potentiation of venetoclax-induced antileukemic activity against human U-937 cells at 4.3 uM in presence of bone-marrow derived stromal cell-conditioned medium; type: functional, cell-based
[40] = system: U-937; experiment: Potentiation of SGI-1027-induced antileukemic activity against human U-937 cells at 4.3 uM in presence of bone-marrow derived stromal cell-conditioned medium; type: functional, cell-based
[41] = system: U-937; experiment: Potentiation of alisertib-induced antileukemic activity against human U-937 cells at 4.3 uM in presence of bone-marrow derived stromal cell-conditioned medium; type: functional, cell-based

CC(=O)N1CCc2c(sc3nc(SCC(=O)Nc4cccnc4C)n(Cc4ccco4)c(=O)c23)C1
active: Activity [35]
inactive: Activity [1] | Activity [2] | Activity [3] | Activity [4] | Activity [5] | Activity [6] | Activity [7] | Activity [8] | Activity [9] | Activity [10] | Activity [11] | Activity [12] | Activity [13] | Activity [14] | Activity [15] | Activity [16] | Activity [17] | Activity [18] | Activity [19] | Activity [20] | Activity [21] | Activity [22] | Activity [23] | Activity [25] | Activity [26] | Activity [27] | Activity [28] | Activity [29] | Activity [30] | Activity [31] | Activity [32] | Activity [34] | Activity [36] | Activity [37] | Activity [38] | Activity [39] | Activity [40] | Activity [41]
> 5 µM: EC50 [24]
41%: inhibition [33]
